{"source": "patent US20260262643A1", "about": "“HERBICIDAL BENZOXAZINES” (FMC CORPORATION, priority 2022, published 2026)", "key": {"[1]": {"tested_on": "foxtail, giant", "assay": "Test C preemergence", "assay_type": "in vivo, Setaria faberi", "from_the_text": "(§1) Seeds of plant species selected from barnyardgrass (Echinochloa crusgalli), blackgrass (Alopecurus myosuroides), corn (Zea mays), foxtail, giant (giant foxtail, Setaria faberi), green foxtail (Setaria viridis), goosegrass (Eleusine indica), kochia (Bassia scoparia), oat, wild (wild oat, Avena fatua), pigweed, palmer (palmer amaranth, palmer pigweed, Amaranthus palmeri), Pigweed, Redroot (redroot pigweed, Amaranthus retroflexus), ragweed (common ragweed, Ambrosia artemisiifolia), ryegrass, Italian ([…] ryegrass, Lolium multiflorum), soybean (Glycine max), and wheat (Triticum aestivum) were planted into a blend of loam soil and sand and treated preemergence with a directed soil spray using test chemicals formulated in a non-phytotoxic solvent mixture which included a surfactant. At the same time, plants selected from these crops and weed species and also galium (catchweed bedstraw, Galium aparine) and horseweed (Erigeron canadensis) were planted in pots containing the same blend of loam soil and sand and treated with postemergence applications of test chemicals formulated in the same manner. Plants ranged in height from 2 to 10 cm and were in the one- to two-leaf stage for the postemergence treatment. Treated plants and untreated controls were maintained in a greenhouse for 10 days, after which time all treated plants were compared to untreated controls and visually evaluated for injury. Plant response ratings, summarized in Table C, are based on a 0 to 100 scale where 0 is no effect and 100 is complete control. A dash (-) response means no test result."}, "[2]": {"tested_on": "ragweed", "assay": "Test C postemergence", "assay_type": "in vivo, Ambrosia artemisiifolia", "settings": "10 days, 0 to 100 scale (0 no effect, 100 complete control)", "outline": "(§2)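 Soil-applied (pre) and foliar (post, 1–2 leaf, 2–10 cm) sprays; surfactant-containing non-phytotoxic solvent vehicle; loam/sand substrate. Readout: visual % control at 10 d, greenhouse, versus untreated.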"}, "[3]": {"tested_on": "rice", "assay": "Test D flooded paddy test", "assay_type": "in vivo, Oryza sativa", "settings": "250 g ai/ha, applied to paddy water, visual rating after 13 to 14 days, scale 0 to 100 (0 no effect, 100 complete control)", "outline": "(§3)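 Plants at the 2-leaf stage were grown in pots flooded to 3 cm, and compound was applied directly into the paddy water, with depth kept throughout. After 13–14 days in a greenhouse, injury was rated visually against untreated controls on a 0–100 scale (100 = complete control); a dash means not tested.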"}, "[4]": {"tested_on": "horseweed", "assay": "Test C postemergence", "assay_type": "in vivo, Erigeron canadensis", "settings": "10 days, 0 to 100 scale (0 no effect, 100 complete control)", "outline": "as §2"}, "[5]": {"tested_on": "soybean", "assay": "Test C postemergence", "assay_type": "in vivo, Glycine max", "settings": "10 days, 0 to 100 scale (0 no effect, 100 complete control)", "outline": "as §2"}, "[6]": {"tested_on": "sedge, umbrella", "assay": "Test D flooded paddy test", "assay_type": "in vivo, Cyperus difformis", "settings": "250 g ai/ha, applied to paddy water, visual rating after 13 to 14 days, scale 0 to 100 (0 no effect, 100 complete control)", "outline": "as §3"}, "[7]": {"tested_on": "pigweed, palmer", "assay": "Test C postemergence", "assay_type": "in vivo, Amaranthus palmeri", "settings": "10 days, 0 to 100 scale (0 no effect, 100 complete control)", "outline": "as §2"}, "[8]": {"tested_on": "kochia", "assay": "Test C preemergence", "assay_type": "in vivo, Bassia scoparia", "outline": "as §2"}, "[9]": {"tested_on": "blackgrass", "assay": "Test C preemergence", "assay_type": "in vivo, Alopecurus myosuroides", "outline": "as §2"}, "[10]": {"tested_on": "galium", "assay": "Test C postemergence", "assay_type": "in vivo, Galium aparine", "settings": "10 days, 0 to 100 scale (0 no effect, 100 complete control)", "outline": "as §2"}, "[11]": {"tested_on": "wheat", "assay": "Test C preemergence", "assay_type": "in vivo, Triticum aestivum", "outline": "as §2"}, "[12]": {"tested_on": "barnyardgrass", "assay": "Test C preemergence", "assay_type": "in vivo, Echinochloa crusgalli", "outline": "as §2"}, "[13]": {"tested_on": "foxtail, giant", "assay": "Test C postemergence", "assay_type": "in vivo, Setaria faberi", "settings": "10 days, 0 to 100 scale (0 no effect, 100 complete control)", "from_the_text": "as §1"}, "[14]": {"tested_on": "ryegrass, Italian", "assay": "Test C preemergence", "assay_type": "in vivo, Lolium multiflorum", "outline": "as §2"}, "[15]": {"tested_on": "soybean", "assay": "Test C preemergence", "assay_type": "in vivo, Glycine max", "outline": "as §2"}, "[16]": {"tested_on": "ducksalad", "assay": "Test D flooded paddy test", "assay_type": "in vivo, Heteranthera limosa", "settings": "250 g ai/ha, applied to paddy water, visual rating after 13 to 14 days, scale 0 to 100 (0 no effect, 100 complete control)", "outline": "as §3"}, "[17]": {"tested_on": "barnyardgrass", "assay": "Test D flooded paddy test", "assay_type": "in vivo, Echinochloa crus-galli", "settings": "250 g ai/ha, applied to paddy water, visual rating after 13 to 14 days, scale 0 to 100 (0 no effect, 100 complete control)", "outline": "as §3"}, "[18]": {"tested_on": "kochia", "assay": "Test C postemergence", "assay_type": "in vivo, Bassia scoparia", "settings": "10 days, 0 to 100 scale (0 no effect, 100 complete control)", "outline": "as §2"}, "[19]": {"tested_on": "corn", "assay": "Test C postemergence", "assay_type": "in vivo, Zea mays", "settings": "10 days, 0 to 100 scale (0 no effect, 100 complete control)", "outline": "as §2"}, "[20]": {"tested_on": "wheat", "assay": "Test C postemergence", "assay_type": "in vivo, Triticum aestivum", "settings": "10 days, 0 to 100 scale (0 no effect, 100 complete control)", "outline": "as §2"}, "[21]": {"tested_on": "barnyardgrass", "assay": "Test C postemergence", "assay_type": "in vivo, Echinochloa crusgalli", "settings": "10 days, 0 to 100 scale (0 no effect, 100 complete control)", "outline": "as §2"}, "[22]": {"tested_on": "ragweed", "assay": "Test C preemergence", "assay_type": "in vivo, Ambrosia artemisiifolia", "settings": "Preemergence, 125 g ai/ha; 0 to 100 scale, 0 no effect, 100 complete control", "outline": "as §2"}, "[23]": {"tested_on": "oat, wild", "assay": "Test C postemergence", "assay_type": "in vivo, Avena fatua", "settings": "10 days, 0 to 100 scale (0 no effect, 100 complete control)", "outline": "as §2"}, "[24]": {"tested_on": "pigweed, palmer", "assay": "Test C preemergence", "assay_type": "in vivo, Amaranthus palmeri", "outline": "as §2"}, "[25]": {"tested_on": "blackgrass", "assay": "Test C postemergence", "assay_type": "in vivo, Alopecurus myosuroides", "settings": "10 days, 0 to 100 scale (0 no effect, 100 complete control)", "outline": "as §2"}, "[26]": {"tested_on": "oat, wild", "assay": "Test C preemergence", "assay_type": "in vivo, Avena fatua", "outline": "as §2"}, "[27]": {"tested_on": "ryegrass, Italian", "assay": "Test C postemergence", "assay_type": "in vivo, Lolium multiflorum", "settings": "10 days, 0 to 100 scale (0 no effect, 100 complete control)", "outline": "as §2"}, "[28]": {"tested_on": "corn", "assay": "Test C preemergence", "assay_type": "in vivo, Zea mays", "outline": "as §2"}, "[29]": {"settings": "500 g ai/ha, preemergence, 0 to 100 scale (0 no effect, 100 complete control)"}, "[30]": {"settings": "Preemergence, 125 g ai/ha, 0 to 100 scale, 0 no effect, 100 complete control"}}}
{"smiles": "CC(C)(C)c1ncn(-c2cc(C(=O)N3CC(C(F)(F)F)Oc4c(Cl)cccc43)ccn2)n1", "note": "(stereo not drawn) [Compound 322]", "values": [{"measurement": "Foxtail, Giant plant response rating", "setting": "[1]; [29]", "result": 100}, {"measurement": "Plant response rating, Foxtail, Giant", "setting": "[1]; [30]", "result": 90}, {"measurement": "Plant response rating, Ragweed", "setting": "[2]; 500 g ai/ha, postemergence", "result": 50}, {"measurement": "Plant response rating, Ragweed", "setting": "[2]; Postemergence, 125 g ai/ha", "result": 40}, {"measurement": "Plant response rating, Rice (Flood)", "setting": "[3]", "result": 0}, {"measurement": "Plant response rating, Horseweed", "setting": "[4]; 500 g ai/ha, postemergence", "result": 0}, {"measurement": "Plant response rating, Horseweed", "setting": "[4]; Postemergence, 125 g ai/ha", "result": 0}, {"measurement": "Plant response rating, Soybean", "setting": "[5]; 500 g ai/ha, postemergence", "result": 100}, {"measurement": "Plant response rating, Soybean", "setting": "[5]; Postemergence, 125 g ai/ha", "result": 60}, {"measurement": "Plant response rating, Sedge, Umbrella (Flood)", "setting": "[6]", "result": 0}, {"measurement": "Plant response rating, Pigweed, Palmer", "setting": "[7]; 500 g ai/ha, postemergence", "result": 90}, {"measurement": "Plant response rating, Pigweed, Palmer", "setting": "[7]; Postemergence, 125 g ai/ha", "result": 50}, {"measurement": "Kochia plant response rating", "setting": "[8]; [29]", "result": 40}, {"measurement": "Plant response rating, Kochia", "setting": "[8]; [30]", "result": 20}, {"measurement": "Blackgrass plant response rating", "setting": "[9]; [29]", "result": 40}, {"measurement": "Plant response rating, Blackgrass", "setting": "[9]; [30]", "result": 40}, {"measurement": "Plant response rating, Galium", "setting": "[10]; 500 g ai/ha, postemergence", "result": 70}, {"measurement": "Plant response rating, Galium", "setting": "[10]; Postemergence, 125 g ai/ha", "result": 70}, {"measurement": "Wheat plant response rating", "setting": "[11]; [29]", "result": 20}, {"measurement": "Plant response rating, Wheat", "setting": "[11]; [30]", "result": 0}, {"measurement": "Barnyardgrass plant response rating", "setting": "[12]; [29]", "result": 90}, {"measurement": "Plant response rating, Barnyardgrass", "setting": "[12]; [30]", "result": 40}, {"measurement": "Plant response rating, Foxtail, Giant", "setting": "[13]; 500 g ai/ha, postemergence", "result": 90}, {"measurement": "Plant response rating, Foxtail, Giant", "setting": "[13]; Postemergence, 125 g ai/ha", "result": 50}, {"measurement": "Ryegrass, Italian plant response rating", "setting": "[14]; [29]", "result": 80}, {"measurement": "Plant response rating, Ryegrass, Italian", "setting": "[14]; [30]", "result": 60}, {"measurement": "Soybean plant response rating", "setting": "[15]; [29]", "result": 70}, {"measurement": "Plant response rating, Soybean", "setting": "[15]; [30]", "result": 0}, {"measurement": "Plant response rating, Ducksalad (Flood)", "setting": "[16]", "result": 0}, {"measurement": "Plant response rating, Barnyardgrass (Flood)", "setting": "[17]", "result": 0}, {"measurement": "Plant response rating, Kochia", "setting": "[18]; 500 g ai/ha, postemergence", "result": 80}, {"measurement": "Plant response rating, Kochia", "setting": "[18]; Postemergence, 125 g ai/ha", "result": 60}, {"measurement": "Plant response rating, Corn", "setting": "[19]; 500 g ai/ha, postemergence", "result": 10}, {"measurement": "Plant response rating, Corn", "setting": "[19]; Postemergence, 125 g ai/ha", "result": 10}, {"measurement": "Plant response rating, Wheat", "setting": "[20]; 500 g ai/ha, postemergence", "result": 20}, {"measurement": "Plant response rating, Wheat", "setting": "[20]; Postemergence, 125 g ai/ha", "result": 20}, {"measurement": "Plant response rating, Barnyardgrass", "setting": "[21]; 500 g ai/ha, postemergence", "result": 50}, {"measurement": "Plant response rating, Barnyardgrass", "setting": "[21]; Postemergence, 125 g ai/ha", "result": 40}, {"measurement": "Plant response rating, Ragweed", "setting": "[22]", "result": 0}, {"measurement": "Plant response rating, Oat, Wild", "setting": "[23]; 500 g ai/ha, postemergence", "result": 30}, {"measurement": "Plant response rating, Oat, Wild", "setting": "[23]; Postemergence, 125 g ai/ha", "result": 0}, {"measurement": "Pigweed, Palmer plant response rating", "setting": "[24]; [29]", "result": 90}, {"measurement": "Plant response rating, Pigweed, Palmer", "setting": "[24]; [30]", "result": 40}, {"measurement": "Plant response rating, Blackgrass", "setting": "[25]; 500 g ai/ha, postemergence", "result": 40}, {"measurement": "Plant response rating, Blackgrass", "setting": "[25]; Postemergence, 125 g ai/ha", "result": 10}, {"measurement": "Oat, Wild plant response rating", "setting": "[26]; [29]", "result": 30}, {"measurement": "Plant response rating, Oat, Wild", "setting": "[26]; [30]", "result": 0}, {"measurement": "Plant response rating, Ryegrass, Italian", "setting": "[27]; 500 g ai/ha, postemergence", "result": 40}, {"measurement": "Plant response rating, Ryegrass, Italian", "setting": "[27]; Postemergence, 125 g ai/ha", "result": 20}, {"measurement": "Corn plant response rating", "setting": "[28]; [29]", "result": 30}, {"measurement": "Plant response rating, Corn", "setting": "[28]; [30]", "result": 30}]}
